Data taken from ChEMBL document CHEMBL3608293, “Novel Pyrazine Amide Compounds” (ACS Med Chem Lett, 2015).

These compounds were tested against T1, Epithelial sodium channel subunit alpha (Mus musculus, UniProt Q61180) (assay: Inhibition of ENaC in mouse M1 assessed as effect on trans epithelial electrical resistance by measuring short circuit currents by voltage-clamp based Ussing chamber assay).
T1 sequence (Q61180 whole entry): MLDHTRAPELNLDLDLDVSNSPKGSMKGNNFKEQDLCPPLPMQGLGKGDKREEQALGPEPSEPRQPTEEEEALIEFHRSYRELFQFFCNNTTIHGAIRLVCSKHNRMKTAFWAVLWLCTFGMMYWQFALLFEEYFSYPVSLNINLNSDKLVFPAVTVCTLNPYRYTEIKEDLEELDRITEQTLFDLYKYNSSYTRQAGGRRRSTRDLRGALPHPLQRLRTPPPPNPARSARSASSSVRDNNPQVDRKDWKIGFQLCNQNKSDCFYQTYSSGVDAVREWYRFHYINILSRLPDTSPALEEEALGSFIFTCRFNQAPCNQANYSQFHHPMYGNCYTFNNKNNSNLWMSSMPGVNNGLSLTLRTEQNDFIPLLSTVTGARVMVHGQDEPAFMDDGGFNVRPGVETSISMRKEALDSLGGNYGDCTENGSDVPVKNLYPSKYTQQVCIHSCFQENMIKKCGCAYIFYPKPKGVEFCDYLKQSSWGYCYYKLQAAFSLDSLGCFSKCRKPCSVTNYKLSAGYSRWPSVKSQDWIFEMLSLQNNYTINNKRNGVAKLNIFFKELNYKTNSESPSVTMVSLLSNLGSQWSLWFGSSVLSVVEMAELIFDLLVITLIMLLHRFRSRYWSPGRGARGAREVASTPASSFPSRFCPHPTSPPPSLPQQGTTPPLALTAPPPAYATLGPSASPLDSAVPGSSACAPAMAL

**Q.** `COc1ccc(CCC[N@@+]2(C)CCC[C@H](NC(=O)c3nc(Cl)c(N)nc3N)C2)cc1` was tested. Which IC50 did it give?
**A.** 70 nM

**Q.** How did the IC50 turn out when `COc1ccc(CCC[N+]2(CCCc3ccc(C(=O)NCCCN(C)C)cc3)CCCC(NC(=O)c3nc(Cl)c(N)nc3N)C2)cc1` (stereo unspecified) was run?
**A.** 20 nM

**Q.** Which IC50 does the source give for `COc1ccc(CCC[N+]2(CCCc3ccccc3)CCCC(NC(=O)c3nc(Cl)c(N)nc3N)C2)cc1` (stereo unspecified) here?
**A.** 6 nM

**Q.** For `Nc1nc(N)c(C(=O)N[C@H]2CCC[N+](CCCc3ccc(OCC(=O)NCCn4ccnc4)cc3)(CCCc3ccc(OCC(=O)NCCn4ccnc4)cc3)C2)nc1Cl`, which IC50 is on record?
**A.** 9 nM

**Q.** Which IC50 does the source give for `Nc1nc(N)c(C(=O)N[C@H]2CCC[N+](CCCc3ccc(OCC(=O)NCCCO)cc3)(CCCc3ccc(OCC(=O)NCCCO)cc3)C2)nc1Cl` here?
**A.** 13 nM

**Q.** How did the IC50 turn out when `Nc1nc(N)c(C(=O)N[C@H]2CCC[N+](CCCc3ccc(OCC(=O)NCCc4ccccn4)cc3)(CCCc3ccc(OCC(=O)NCCc4ccccn4)cc3)C2)nc1Cl` was run?
**A.** 6 nM
